# How the values were obtained:
# Bcl-2 = Bcl-2 inhibition assay in MCF-7 cells; assay type: cell-based, human; conditions: for Bcl-2 Conc: compound at its IC50
# Description: (§1) The current study supplied compounds 6i and 10e to breast (MCF-7) cancer cell lines at their respective IC50 values. This led to a notable elevation of pro-apoptotic Bax expression, with a fold increase of 34 for compound 6i and 36 for compound 10e.
# (§2) Compounds 6i and 10e were assessed for their ability to activate caspase-3, caspase-8, and Bax, as well as to downregulate the anti-apoptotic protein Bcl2 in the MCF-7 breast cancer cell line ([Abdelbaset et al., 2019]). Supplementary Appendix A provides more details.
# Mix all the reagents thoroughly without foaming before use. Wash the microwells twice with approximately 300 μL Wash Buffer per well with thorough aspiration of microwell contents between washes. Take caution not to scratch the surface of the microwells. After the last wash, empty the wells and tap microwell strips on an absorbent pad or paper towel to remove excess Wash Buffer. Use the microwell strips immediately after washing or place upside down on a wet absorbent paper for not longer than 15 minutes. […] Add 100 μL of Sample Diluent in duplicate to all standard wells and to the blank wells. Prepare standard (1:2 dilution) in duplicate ranging from 32 ng/mL to 0.5 ng/mL. Add 100 μL of Sample Diluent, in duplicate, to the blank wells. Add 80 μL of Sample Diluent, in duplicate, to the sample wells. Add 20 μL of each Sample, in duplicate, to the designated wells. Add 50 μL of diluted biotin-conjugate to all wells, including the blank wells. Cover with a plate cover and incubate at room temperature, on a microplate shaker at 100 rpm if available, for 2 hours. Remove plate cover and empty the wells. Wash microwell strips 3 times as described in step 2. Add 100 μL of diluted Streptavidin-HRP to all wells, including the blank wells. Cover with a plate cover and incubate at room temperature, on a microplate shaker at 100 rpm if available, for 1 hour. Remove the plate cover and empty the wells. Wash microwell strips 3 times as described in step 2. Proceed to the next step. Pipette 100 μl of mixed TMB Substrate Solution to all wells, including the blanks. Incubate the microwell strips at room temperature (18° to 25°C) for about 15 minutes, if available on a rotator set at 100 rpm. Avoid direct exposure to intense light. The point, at which the substrate reaction is stopped, is often determined by the ELISA reader. Many ELISA readers record absorbance only up to 2.0 O.D. Therefore, the color development within individual microwells must be watched by the person running the assay and the substrate reaction stopped before positive wells are no longer properly detectable. Stop the enzyme reaction by quickly pipetting 100 μL of Stop Solution into each well, including the blank wells. It is important that the Stop Solution is spread quickly and uniformly throughout the microwells to completely inactivate the enzyme. Results must be read immediately after the Stop Solution is added or within one hour if the microwell strips are stored at 2 - 8°C in the dark. Read the absorbance of each microwell on a spectrophotometer using 450 nm as the primary wavelength.
# Bax = Bax activation assay in MCF-7 cells; assay type: cell-based, human; conditions: for Bax Conc: compound at its IC50; for Bax Fold change: vs untreated control
# Description: as §1, §2
# Bring all reagents, except the human Bax-α Standard, to room temperature for at least 30 minutes prior to opening. The human Bax-α Standard solution should not be left at room temperature for more than 10 minutes. All standards, controls and samples should be run in duplicate. Refer to the Assay Layout Sheet to determine the number of wells to be used and put any remaining wells with the desiccant back into the pouch and seal the ziploc. Store unused wells at 4 °C. Pipet 100 μL of Assay Buffer into the S0 (0 pg/mL standard) wells. Pipet 100 μL of Standards #1 through #6 into the appropriate wells. Pipet 100 μL of the Samples into the appropriate wells. Tap the plate gently to mix the contents. Seal the plate and incubate at room temperature on a plate shaker for 1 hour at ~500 rpm. Empty the contents of the wells and wash by adding 400 μL of wash solution to every well. Repeat the wash 4 more times for a total of 5 washes. After the final wash, empty or aspirate the wells and firmly tap the plate on a lint free paper towel to remove any remaining wash buffer. Pipet 100 μL of yellow Antibody into each well, except the Blank. Seal the plate and incubate at room temperature on a plate shaker for 1 hour at ~500 rpm. Empty the contents of the wells and wash by adding 400 μL of wash solution to every well. Repeat the wash 4 more times for a total of 5 washes. After the final wash, empty or aspirate the wells and firmly tap the plate on a lint free paper towel to remove any remaining wash buffer. Add 100 μL of blue Conjugate to each well, except the Blank. Seal the plate and incubate at room temperature on a plate shaker for 30 minutes at ~500 rpm. Empty the contents of the wells and wash by adding 400 μL of wash solution to every well. Repeat the wash 4 more times for a total of 5 washes. After the final wash, empty or aspirate the wells and firmly tap the plate on a lint free paper towel to remove any remaining wash buffer. Pipet 100 μL of Substrate Solution into each well. Incubate for 30 minutes at room temperature on a plate shaker at ~500 rpm. Pipet 100 μL Stop Solution to each well. Blank the plate reader against the Blank wells, read the optical density at 450 nm. Calculate the average net Optical Density (OD) bound for each standard and sample by subtracting the average Blank OD from the average OD for each standard and sample. Using linear graph paper, plot the Average Net OD for each standard versus Bax concentration in each standard. Approximate a straight line through the points. The concentration of Bax in the unknowns can be determined by interpolation.
# EGFR = EGFR (Homo sapiens, UniProt P00533); assay: EGFR-TK inhibitory assay
# Description: To record autophosphorylation level, EGFR kinase assay was carried out on the basis of DELFIA/Time-Resolved Fluorometry. […] Each compound (10 µL) was incubated with recombinant enzyme (10 µL, 5 ng for EGFR, 1:80 dilution in 100 mM HEPES) for 10 min at 25 °C, subsequent to the addition of 5X buffer (10 µL, containing 2 mM MnCl2, 100 µM Na3VO4, 20 mM HEPES and 1 mM DTT) and ATP-MgCl2 (20 µL, containing 0.1 mM ATP and 50 mM MgCl2) and incubation for 1h. The negative and positive controls were included in each plate by the incubation of enzyme either with or without ATP-MgCl2. The liquid was removed after incubation and the plates were washed thrice using wash buffer. Europium-tagged antiphosphotyrosine antibody (75 µL, 400 ng) was added to each well followed by incubation of 1h and then washing of the plates using buffer. […] The autophosphorylation percentage inhibition by compounds was calculated using the following equation:
# [1] = system: Panc-1 (pancreatic cancer cell line); assay: Antiproliferative assay, Panc-1; assay type: cell-based, human; conditions: Homo sapiens, PANC-1; read-out: Antiproliferative activity IC50 ± SEM, Panc-1
# Description: Refer to Supplementary Appendix A for more information.
# DMSO (0.1%) was used as control.
# [2] = system: four human cancer cell lines (HT-29, A-549, MCF-7, Panc-1); assay: Antiproliferative assay, mean over four cancer cell lines (GI50); conditions: Homo sapiens, read-out: Average IC50 (GI50)
# Description: To calculate the total nuclear DNA, a fluorescent dye (propidium iodide, PI) is used which can attach to the DNA, thus offering a quick and precise technique. PI cannot pass through the cell membrane and its signal intensity can be considered as directly proportional to quantity of cellular DNA. Cells whose cell membranes are damaged or have changed permeability are counted as dead ones. […] The medium was removed; the compounds were added to the plates at 10 µM concentrations (in 0.1% DMSO) in triplicates, followed by incubation for 48 h. DMSO (0.1%) was used as control. After incubation, medium was removed followed by the addition of PI (25 µl, 50µg/mL in water/medium) to each well of the plates. At -80 °C, the plates were allowed to freeze for 24 h, followed by thawing at 25 °C. A fluorometer (Polar-Star BMG Tech) was used to record the readings at excitation and emission wavelengths of 530 and 620 nm for each well. The percentage cytotoxicity of compounds was calculated using the following formula:
# EGFR, sequence (P00533 669-1210): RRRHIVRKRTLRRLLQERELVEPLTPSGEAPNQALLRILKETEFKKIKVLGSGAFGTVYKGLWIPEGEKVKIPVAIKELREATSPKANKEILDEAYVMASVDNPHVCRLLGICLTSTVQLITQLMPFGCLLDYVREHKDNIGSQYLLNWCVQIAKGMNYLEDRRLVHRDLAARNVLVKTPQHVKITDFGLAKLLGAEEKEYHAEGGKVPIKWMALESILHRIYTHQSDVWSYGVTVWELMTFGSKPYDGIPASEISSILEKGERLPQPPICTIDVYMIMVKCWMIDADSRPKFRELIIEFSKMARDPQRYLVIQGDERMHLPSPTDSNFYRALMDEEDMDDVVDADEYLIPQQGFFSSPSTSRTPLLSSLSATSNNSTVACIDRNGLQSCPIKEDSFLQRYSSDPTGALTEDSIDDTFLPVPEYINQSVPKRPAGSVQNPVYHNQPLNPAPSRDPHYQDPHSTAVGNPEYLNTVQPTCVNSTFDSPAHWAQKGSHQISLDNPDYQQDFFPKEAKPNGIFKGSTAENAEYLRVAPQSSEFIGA
IC50 (EGFR),IC50 [1],IC50 [2],SMILES,Bcl-2 Conc (Bcl-2),Bax Conc (Bax),Bax Fold change (Bax),Bcl-2 Fold reduction (Bcl-2; vs untreated control)
78 ± 5 nM,28 ± 2 nM,29 nM,"NS(=O)(=O)c1ccc(-n2cc(CSc3nc4ccccc4[nH]3)nn2)cc1 [6i, 4-(4-(((1H-benzimidazol-2-yl)thio)methyl)-1H-1,2,3-triazol-1-yl)benzene-sulfonamide]",0.85 ng/mL,310 ± 3 pg/mL,34,
73 ± 4 nM,26 ± 2 nM,25 nM,O=[N+]([O-])c1cccc(-n2cc(Cn3c(SCc4ccccc4)nc4ccccc43)nn2)c1 [10e],0.70 ng/mL,325 ± 3 pg/mL,36,~7

# From publication PMC11783063, “Design, synthesis, and apoptotic antiproliferative action of new benzimidazole/1,2,3-triazole hybrids as EGFR inhibitors” (Frontiers in Chemistry, 2025)
